Counter-ions that a name gives are not always drawn.
Key:
B. vulgatus [1] = experiment: Prestwick library screen for microbiome-protective antibiotic antagonists (growth AUC z-scores); assay type: cell-based, Bacteroides vulgatus; details: Doxycycline 0.08 μM + 20 μM drug, z-score of normalized growth AUC, two replicates
B. uniformis [2] = experiment: as above; assay type: cell-based, Bacteroides uniformis; details: z-score of normalized growth AUC, two replicates
Description: The inventors reasoned that it should be possible to identify drugs that selectively antagonize the effect of antibiotics on gut microbes, while retaining activity against pathogens. Therefore, the inventors screened the Prestwick library to identify antagonizing compounds to erythromycin or doxycycline on two abundant and prevalent gut microbes, B. vulgatus and B. uniformis.
Preparation of screening plates. The Prestwick Chemical Library was purchased from Prestwick Chemical Inc. and drugs were re-arrayed, diluted and stored in 96 well format as described before. The inventors prepared drug plates (2×drug concentration) in MGAM medium and stored them at −30° C. For each experiment, drug plates were thawed, supplemented with the respective antibiotic solution (freshly prepared in MGAM) and pre-reduced in the anaerobic chamber overnight. All rearranging and aliquoting steps were done using the Biomek FXP (Beckman Coulter) system.
Inoculation and screening conditions. Strains were grown twice overnight, the second overnight culture was diluted in MGAM to reach OD578 nm 0.04 (4×the desired starting OD). 25 μl of the diluted cultures were used to inoculate wells containing 50 μl of 2× concentrated Prestwick drug and 25 μl of the 4× concentrated antibiotic using the semi-automated, 96-well multi-channel pipette epMotion 96 (Eppendorf). Each well contained 1% DMSO, 20 μM of the Prestwick drug and a species-specific antibiotic concentration that was just inhibitory for the respective strain (0.625 μM for erythromycin, 0.04 μM doxycycline for B. uniformis and 0.08 μM doxycycline for B. vulgatus). Plates were sealed with breathable membranes (Breathe-Easy®) and OD578 was measured hourly after 30 sec of linear shaking with a microplate spectrophotometer (EON, Biotek) and an automated microplate stacker (Biostack 4, Biotek) fitted inside a custom-made incubator (EMBL Mechanical Workshop). Growth curves were collected up to 24 h. For each antibiotic, each species was screen in biological duplicates. All experiments included control wells of unperturbed growth (32 wells per run) and control wells for growth in the presence of the antibiotic only (8 wells per plate).
Analysis pipeline and hit calling: All growth curves within a plate were truncated at the transition time from exponential to stationary phase and converted to normalized AUCs using in-run control wells (no drug) as described before. The inventors then calculated z-scores based on these normalized AUCs, removed replicates with 8-fold differences in z-scores to eliminate noise effects, computed mean z scores across the two replicates and selected combinations with mean z-scores >3. This selection included 19 potential antibiotic antagonists and the inventors followed up on 14 of them (7 potential erythromycin and 7 potential doxycycline antagonists in either B. vulgatus or B. uniformis—see FIG. 4) in independent experiments.

B. uniformis [3] = experiment: Validation of microbiome-protective antagonists (concentration-dependent growth rescue); assay type: cell-based, Bacteroides uniformis; details: antagonist gradient, normalized AUC >0.25 = growth rescue
Protocol: (§1) Validation of microbiome-protective antagonists: In a first step, the inventors kept the erythromycin/doxycycline concentration constant (0.625 μM for erythromycin, 0.078 μM (B. vulgates)/0.039 μM (B. uniformis) for doxycycline) and tested concentration gradients of the potential antagonists with ranges depending on the antagonist's solubility. Compounds were purchased from independent vendors and dissolved at 100× starting concentration in DMSO. Eight 2-fold serial dilutions were prepared in 96-well plates with each row containing a different antagonist, sufficient control DMSO wells and wells with just the respective antibiotic (‘antibiotic-only’ control). These master plates were diluted in MGAM medium (50 μl) to 2×assay concentration and 25 μl freshly prepared antibiotic solution (4× test concentration) was added. Plates were pre-reduced overnight in an anaerobic chamber and inoculated with 25 μl of overnight cultures (prepared as described under “Growth conditions”) to reach a starting OD578 of 0.01 and 1% DMSO concentration. Growth was monitored hourly for 24 h after 30 sec of linear shaking. Experiments were performed in biological triplicates. For analysis, growth curves were converted into normalized AUCs (see above). The inventors accounted for residual growth in the presence of the antibiotic by subtracting the median normalized AUCs of the ‘antibiotic-only’ control per plate.

B. vulgatus [4] = experiment: as above; assay type: cell-based, Bacteroides vulgatus; details: Doxycycline 0.078 μM constant, antagonist gradient, normalized AUC >0.25 = growth rescue
Protocol: as §1

[5] = test system: species of the order Bacteroidales; experiment: Antidote vs azithromycin across seven gut Bacteroidales (Example 4); assay type: cell-based; details: combination with azithromycin
Protocol: The antidotes dicumarol (first column), benzbromarone (second column) and tolfenamic acid (third column) were tested for their efficacy in antagonizing the macrolide antibiotic azithromycin across seven prevalent and abundant gut Bacteroidales (B. vulgatus, B. fragilis NT, B. thetaiotaomicron, P. copri, B. caccae, B. ovatus, P. distasonis). […] All drug concentrations are in μM.
In particular, they aimed at testing, whether these antidotes can also protect from other macrolides such as azithromycin, a clinically more relevant antibiotic.

E. faecalis [6] = experiment: E. faecalis-containing synthetic community, E. faecalis CFU on selective medium (Example 7); assay type: cell-based, Enterococcus faecalis
Description: (§2) Heat maps show median area under the growth curve (AUC) of the seven-member synthetic community including the pathogen E. faecalis. The numbers within the heat map represent the total number of all E. faecalis viable cells for each erythromycin-antidote combination as determined by enumerating of E. faecalis colony forming units after plating on selective medium. All drug concentrations are in μM. n. d.=not detectable.
(§3) The inventors exposed synthetic communities that contained the intestinal gut pathogen E. faecalis to erythromycin, and evaluated rescue of gut commensals and simultaneous killing of the pathogen in the presence of antidotes.

B. vulgatus [7] = experiment: 8x8 checkerboard assay for anaerobic commensals (antibiotic vs antagonist); assay type: cell-based, Bacteroides vulgatus
Description: Checkerboard assays for anaerobic commensals: Validated antagonists were further investigated in 8×8 checkerboard assays, where both antibiotics and antagonists were titrated against each other. Such assays were first performed for the commensals that were originally screened (i. e. B. vulgatus and B. uniformis—4 replicates) and later expanded towards 6 further gut microbes (B. caccae, B. fragilis NT, B. ovatus, B. thetaiotaomicron, P. copri, P. distasonis—2 replicates). For vertical gradients, 2-fold serial dilutions of the antagonists were prepared first in 100× in DMSO and diluted in MGAM as described above (section ‘Validation of microbiome-protective antagonists’). Horizontal antibiotic dilution series were freshly prepared in MGAM at 4× final concentration in equidistant concentration steps. Both, vertical and horizontal dilution series were combined (50 μl of the antagonist gradients (2×) and 25 μl of the antibiotic gradients (4×)) in 96 well plates. Plates were pre-reduced under anaerobic conditions overnight, inoculated with 25 μl of diluted overnight culture (at 4× starting OD) and sealed with breathable membrane (Breathe-Easy®). Bacterial growth was monitored once per hour for 24 hours after 30 sec linear shaking (Eon+Biostack 4, Biotek) under anaerobic conditions. Growth curves were converted into normalized AUCs as described using in-plate controls to define unperturbed growth.

[8] = test system: seven-member synthetic community including the pathogen E. faecalis; experiment: E. faecalis-containing synthetic community, community growth AUC (Example 7); assay type: cell-based
Description: as §2, §3

[9] = test system: synthetic gut commensal community of seven human gut commensals; experiment: Synthetic gut commensal community growth with macrolide and antidote (Example 5); assay type: cell-based; details: erythromycin and azithromycin
Description: Heat maps depict area under the growth curve (AUC) of a synthetic community consisting of seven human gut commensals. Shown is the median AUC of three individual replicates. All drug concentrations are in μM.
So far, antidote effects have only been analyzed in single or pure cultures. However, the human gut microbiome is a complex community of many different bacterial taxa that is usually not adequately mimicked in monocultures.

E. faecalis [10] = experiment: Antidote with macrolide on enterococci (Example 6); assay type: cell-based, Enterococcus faecalis
Description: Heat maps show median area under the growth curve (AUC) of three biologically independent replicates. […] All drug concentrations are in μM.
Here, the inventors expanded testing towards additional antidotes, and included the intestinal human pathogen Enterococcus faecalis.

E. faecium = experiment: Antidote with macrolide on enterococci (Example 6); assay type: cell-based
[11] = Doxycycline 0.04 μM + 20 μM drug
[12] = Erythromycin 0.625 μM + 20 μM drug
[13] = erythromycin 1.15 μM + 40 μM dicumarol or 20 μM benzbromarone

SMILES: N#CC(c1ccc(Cl)cc1)c1c(Cl)cc(-n2ncc(=O)[nH]c2=O)cc1Cl (stereo not shown) [Diclazuril]
- Mean z-score (B. vulgatus [1]): 3.117

SMILES: O=C(O)Cc1cc(I)c(Oc2ccc(O)c(I)c2)c(I)c1 [3,3′,5-triiodothyroacetic acid]
- Mean z-score (B. uniformis [2]; [11]): 4.333
- Validation (B. uniformis [3]; Doxycycline 0.039 μM constant): TRUE

SMILES: Cc1ccc(Cl)c(Nc2ccccc2C(=O)O)c1Cl [Meclofenamic acid sodium salt monohydrate]
- Mean z-score (B. vulgatus [1]): 3.010

SMILES: CCC(Cc1c(I)cc(I)c(N)c1I)C(=O)O (stereo not shown) [Iopanoic acid]
- Mean z-score (B. vulgatus [1]): 5.698
- Validation (B. vulgatus [4]): TRUE

SMILES: Cc1ccc(-c2cc(C(F)(F)F)nn2-c2ccc(S(N)(=O)=O)cc2)cc1 [Celecoxib]
- Mean z-score (B. uniformis [2]; [11]): 3.275

SMILES: CC/C(=C(/CC)c1ccc(O)cc1)c1ccc(O)cc1 [Diethylstilbestrol]
- Mean z-score (B. uniformis [2]; [12]): 9.258
- Mean z-score (B. vulgatus [1]): 3.296
- Validation (B. uniformis [3]; Erythromycin 0.625 μM constant): TRUE

SMILES: CCc1oc2ccccc2c1C(=O)c1cc(Br)c(O)c(Br)c1 [Benzbromarone]
- protection of Bacteroidales species from azithromycin [5]: can be Protected
- E. faecalis counts (E. faecalis [6]; [13]): drop/are still found at below the detection limit
- E. faecalis cells in community under erythromycin + antidote (E. faecalis [6]; erythromycin + antidote): efficiently inhibited
- rescue of B. vulgatus growth from erythromycin (B. vulgatus [7]; combination with erythromycin): can rescue the growth
- Mean z-score (B. uniformis [2]; [12]): 6.034
- community growth (AUC) [8, 13]: the community is rescued
- rescue of the community despite erythromycin treatment ([8]; erythromycin + antidote): rescue of the community
- protection (growth rescue) of synthetic gut commensal community from macrolide antibiotics [9]: can be Protected
- interaction with antibacterial effects of erythromycin/azithromycin (E. faecalis [10]): synergized
- rescue from erythromycin or azithromycin treatment (E. faecalis [10]): Neither dicumarol nor benzbromarone or tolfenamic acid could rescue
- Validation (B. uniformis [3]; Erythromycin 0.625 μM constant): FALSE
- interaction with antibacterial effects of erythromycin/azithromycin (E. faecium): synergized
- rescue from erythromycin or azithromycin treatment (E. faecium): Neither dicumarol nor benzbromarone or tolfenamic acid could rescue

SMILES: Oc1cc(Cl)ccc1Oc1ccc(Cl)cc1Cl [Triclosan]
- Mean z-score (B. uniformis [2]; [11]): 3.066
- Validation (B. uniformis [3]; Doxycycline 0.039 μM constant): FALSE

SMILES: CCCCc1nc(Cl)c(CO)n1Cc1ccc(-c2ccccc2-c2nn[nH]n2)cc1 [Losartan]
- Mean z-score (B. uniformis [2]; [11]): 3.421
- Validation (B. uniformis [3]; Doxycycline 0.039 μM constant): FALSE

SMILES: CC[C@H](c1ccc(O)cc1)[C@@H](CC)c1ccc(O)cc1 [Hexestrol]
- Mean z-score (B. uniformis [2]; [12]): 9.630
- Validation (B. uniformis [3]; Erythromycin 0.625 μM constant): TRUE

SMILES: CCCCCN(CCCCC)C(=O)C(CCC(=O)O)NC(=O)c1ccc(Cl)c(Cl)c1 (stereo not shown) [Lorglumide sodium salt]
- Mean z-score (B. uniformis [2]; [12]): 6.106
- Validation (B. uniformis [3]; Erythromycin 0.625 μM constant): TRUE

SMILES: CC(C)c1c(CN(C)C(C)Cc2ccccc2)n(C)n(-c2ccccc2)c1=O (stereo not shown) [Famprofazone]
- Mean z-score (B. uniformis [2]; [12]): 7.832
- Validation (B. uniformis [3]; Erythromycin 0.625 μM constant): FALSE

SMILES: O=C1Nc2ccc(Cl)cc2[C@@](C#CC2CC2)(C(F)(F)F)O1 [Efavirenz]
- Mean z-score (B. vulgatus [1]): 3.138

SMILES: O=C(O)c1cc(-c2ccc(F)cc2F)ccc1O [Diflunisal]
- rescue of B. vulgatus growth from doxycycline (B. vulgatus [7]; combination with doxycycline): rescued
- Mean z-score (B. vulgatus [1]): 3.265
- Validation (B. vulgatus [4]): TRUE

— patent publication US20220387466A1, “COMPOUNDS AND PHARMACEUTICAL COMPOSITIONS FOR PREVENTION AND/OR TREATMENT OF DYSBIOSIS AND ANTIBACTERIAL ANTIDOTES FOR MICROBIOME-PROTECTION” (priority 2019, published 2022)
